Measured values taken from US20050265944A1, “Carbohydrate-based anti-wrinkle and tissue remodelling compounds” (Ultraceuticals R&D Limited, priority 2002, published 2005).

Key:
skin of normal rats = experiment: Intradermal injection, cell migration / cellularity at the site of administration (histology); assay type: in vivo, female Fischer rats; conditions: 50 microlitre intradermal, 48 hours; for cellularity at the site of injection: versus saline
Experimental: The effects of intradermally injected glucose, maltose and maltopentaose on cell migration into the site of administration in the skin of normal rats. Healthy, specific pathogen free female Fischer rats 10-12 weeks of age (n=3) were anesthetised with ether and hair on their backs was clipped (electric miniclippers) from two areas of approximately 1.5 cm×4 cm either side of and paralleling the spinal column. The test and control substances were injected into the centre of 1 square cm defined areas. Substances were administered in such a fashion that each was injected into 4 different positions at least once in order to control for any possible anatomical positioning effect. Agents were dissolved in normal saline at a concentration of 100 mg/ml and sterile filtered prior to administration. Fifty microlitre injection volumes were given intradermally using 30 gauge needles and control injections consisted of 50 microlitres of sterile normal saline. Animals were sacrificed 48 hours following injection and injection sites were subjected to histological sectioning followed by microscopic examination.
(§1) The effects of intradermally injected dextran and maltopentaose on cell migration into the site of administration in the skin of normal rats. In a similar experiment to that outlined in Example 1 above, female Fischer rats, 10-12 weeks of age (n=3) were treated with 50 microlitre volumes of i) 50 mg/ml of clinical grade dextran (MW 71,400); ii) 50 mg/ml maltopentaose; or iii) normal saline using a 30 gauge needle. Skin injection sites were submitted for histological sectioning and examined microscopically 48 hours following injection.
as §1, with “injected maltotriose” for “injected dextran”, “age (n=2)” for “age (n=3)”, “i) 100” for “i) 50”, “of maltotriose;” for “of clinical grade dextran (MW 71,400);”, “ii) 100” for “ii) 50”
(§2) The effects of intradermally injected maltopentaose and 1,4-beta-mannohexaose on cell migration into the site of administration in the skin of normal rats. In a similar experiment to that outlined in Example 1 above, female Fischer rats, 10-12 weeks of age (n=2) were treated with 50 microlitre volumes of i) 100 mg/ml of maltopentaose; ii) 100 mg/ml of 1,4-beta-mannohexaose; or iii) normal saline using a 30 gauge needle. Skin injection sites were submitted for histological sectioning and examined microscopically 48 hours following injection.
as §2, with “amylose” for “maltopentaose”, “the O-phosphorylated mannan isolated from Pichia holstii” for “1,4-beta-mannohexaose”, “50” for “100”, “amylose;” for “maltopentaose;”, “the O-phosphorylated mannan from Pichia holstii;” for “1,4-beta-mannohexaose;”, “injection. […]” for “injection.”

cutaneous tissue = experiment: Dermal application: cellularity and collagen deposition in cutaneous tissue (general statements); assay type: in vivo; conditions: general statement in the description
[1] = system: skin (dermis) fibroblasts; experiment: Intradermal injection into abdominal skin, cellularity, collagen (Gomori's stain) and fibroblasts (prolyl 4-hydroxylase immunohistochemistry); assay type: in vivo, female Wistar rats; conditions: Example 7, 50 mg/ml in sterile saline, 50 microliters intradermal; for dermal collagen (Gomori's staining) / fibroblast-like cells / cellular infiltrate in the dermis: 48 hours and 7 days; for fibroblast-like cells / cellular infiltrate in the dermis: H&E
Experimental: Following ether anaesthesia, hair was clipped from skin on both sides of the abdominal region of 8-10 week old female Wistar rats. Intradermal injections (via a 30 gauge needle) of either sterile saline (50 microliters), PM5 (50 microliters, 50 mg/ml in sterile saline) or amylopectin (50 microliters, 50 mg/ml in sterile saline) were placed in the centre of 1 cm^2 defined areas of abdominal skin. Forty-eight hours and 7 days after injection, groups of animals were euthanased by CO2 overdose and skin samples were examined following the preparation of 6 μm histological sections that were stained with H&E and Gomori's (collagen) stain. In addition, immunohistochemistry using a mouse anti-rat prolyl 4-hydroxylase monoclonal antibody (Chemicon International Inc) in paraffin embedded skin sections was used to identify fibroblasts within the dermis.

[2] = Example 1, 100 mg/ml in normal saline

Compound: OC[C@H]1O[C@H](O[C@H]2[C@H](O)[C@@H](O)C(O)O[C@@H]2CO)[C@H](O)[C@@H](O)[C@@H]1O (mixture of isomers) [maltose, reference compound]
- cellularity at the site of injection (skin of normal rats; [2]): neither saline, glucose nor maltose had any effect on cellularity

Compound: OC[C@H]1O[C@@H](O[C@H]2[C@H](O)[C@H](O)[C@H](O[C@H]3[C@H](O)[C@H](O)[C@H](O[C@H]4[C@H](O)[C@H](O)[C@H](O[C@H]5[C@H](O)[C@H](O)C(O)O[C@@H]5CO)O[C@@H]4CO)O[C@@H]3CO)O[C@@H]2CO)[C@@H](O)[C@@H](O)[C@@H]1O (stereo partly drawn) [1,4-beta-D-mannopentaose]
- increase in cellularity and collagen deposition in cutaneous tissue / tissue remodelling effect (cutaneous tissue): effective tissue remodelling agents and effective anti-wrinkle compounds

Compound: OC[C@H]1O[C@@H](O[C@H]2[C@H](O)[C@H](O)[C@H](O[C@H]3[C@H](O)[C@H](O)[C@H](O[C@H]4[C@H](O)[C@H](O)[C@H](O[C@H]5[C@H](O)[C@H](O)[C@H](O[C@H]6[C@H](O)[C@H](O)C(O)O[C@@H]6CO)O[C@@H]5CO)O[C@@H]4CO)O[C@@H]3CO)O[C@@H]2CO)[C@@H](O)[C@@H](O)[C@@H]1O (stereo partly drawn) [1,4-beta-mannohexaose]
- cellularity, 1,4-beta-mannohexaose injection sites versus maltopentaose sites (skin of normal rats; Example 4, 100 mg/ml): the results were not significantly different
- cellularity at the site of injection (skin of normal rats; Example 4, 100 mg/ml): increases in cellularity
- increase in cellularity and collagen deposition in cutaneous tissue / tissue remodelling effect (cutaneous tissue): effective tissue remodelling agents and effective anti-wrinkle compounds

Compound: O=P(O)(O)OC[C@H]1O[C@H](O[C@@H]2[C@H](O)[C@@H](O[C@@H]3[C@H](O)[C@@H](O[C@@H]4[C@H](O)[C@@H](O[C@H]5[C@@H](O)[C@H](O)[C@@H](CO)O[C@@H]5O)O[C@H](CO)[C@H]4O)O[C@H](CO)[C@H]3O)O[C@H](CO)[C@H]2O)[C@@H](O)[C@@H](O)[C@@H]1O [PM5, 6-O-phospho-alpha-D-mannose-(1,3)-alpha-D-mannose-(1,3)-alpha-D-mannose-(1,3)-alpha-D-mannose-(1,2)-alpha-D-mannose]
- dermal collagen (Gomori's staining) [1]: collagen deposited in the lower dermal layers
- fibroblast-like cells / cellular infiltrate in the dermis [1]: increase in fibroblast-like cells
- increase in cellularity and collagen deposition in cutaneous tissue / tissue remodelling effect (cutaneous tissue): effective tissue remodelling agents and effective anti-wrinkle compounds

Compound: amylopectin
- fibroblast numbers (immunohistochemical staining, anti-rat prolyl 4-hydroxylase) [1]: influx of fibroblastoid cells
- dermal collagen (Gomori's staining) [1]: increase in dermal collagen
- fibroblast-like cells / cellular infiltrate in the dermis [1]: marked “fibroblast-like” cellular infiltrate in both the upper and lower regions of the dermis
- fibroblast numbers (immunohistochemical staining, anti-rat prolyl 4-hydroxylase) ([1]; listed as Amylopectin): increase in dermal collagen (as indicated Gomori's staining) (FIG. 3), and fibroblast numbers
- increase in cellularity and collagen deposition in cutaneous tissue / tissue remodelling effect (cutaneous tissue): particularly effective in this regard

Compound: amylose
- cellularity at the site of injection (skin of normal rats; Example 5, 50 mg/ml): increases in cellularity

Compound: dextran [reference compound]
- cellularity at the site of injection (skin of normal rats; Example 2, 50 mg/ml): increased cellularity was noticed in the dextran injection sites but this was not statistically significantly different from the saline injected sites

Compound: maltoheptaose
- increase in cellularity and collagen deposition in cutaneous tissue / tissue remodelling effect (cutaneous tissue): effective tissue remodelling agents and effective anti-wrinkle compounds

Compound: maltohexaose
- increase in cellularity and collagen deposition in cutaneous tissue / tissue remodelling effect (cutaneous tissue): effective tissue remodelling agents and effective anti-wrinkle compounds

Compound: maltopentaose
- cellularity at the site of injection (skin of normal rats; [2]): significant increase in cellularity (P=0.001) versus saline
- cellularity at the site of injection (skin of normal rats; Example 2, 50 mg/ml): clear and significant difference in cellularity versus saline
- cellularity at the site of injection (skin of normal rats; Example 3, 100 mg/ml): clear and significant difference in cellularity versus saline
- cellularity at the site of injection (skin of normal rats; Example 4, 100 mg/ml): increases in cellularity
- increase in cellularity and collagen deposition in cutaneous tissue / tissue remodelling effect (cutaneous tissue): effective tissue remodelling agents and effective anti-wrinkle compounds

Compound: maltotriose [reference compound]
- cellularity at the site of injection (skin of normal rats; Example 3, 100 mg/ml): no increase in cellularity
